Data set [1] has as its system Peritoneal macrophage cell. The experiment in a line: Inhibition of superoxide anion radical release in guinea pig peritoneal macrophages. It counts as functional, cell-based. Particulars: Cavia porcellus.
Data set [2] concerns RAW264.7. The experiment in a line: Inhibition of LPS-induced NO production in mouse RAW264.7 cells. Format: functional, cell-based.
The target in data set [3] is T1, Polyunsaturated fatty acid 5-lipoxygenase (Homo sapiens) (UniProt P09917).
T1 sequence (whole entry): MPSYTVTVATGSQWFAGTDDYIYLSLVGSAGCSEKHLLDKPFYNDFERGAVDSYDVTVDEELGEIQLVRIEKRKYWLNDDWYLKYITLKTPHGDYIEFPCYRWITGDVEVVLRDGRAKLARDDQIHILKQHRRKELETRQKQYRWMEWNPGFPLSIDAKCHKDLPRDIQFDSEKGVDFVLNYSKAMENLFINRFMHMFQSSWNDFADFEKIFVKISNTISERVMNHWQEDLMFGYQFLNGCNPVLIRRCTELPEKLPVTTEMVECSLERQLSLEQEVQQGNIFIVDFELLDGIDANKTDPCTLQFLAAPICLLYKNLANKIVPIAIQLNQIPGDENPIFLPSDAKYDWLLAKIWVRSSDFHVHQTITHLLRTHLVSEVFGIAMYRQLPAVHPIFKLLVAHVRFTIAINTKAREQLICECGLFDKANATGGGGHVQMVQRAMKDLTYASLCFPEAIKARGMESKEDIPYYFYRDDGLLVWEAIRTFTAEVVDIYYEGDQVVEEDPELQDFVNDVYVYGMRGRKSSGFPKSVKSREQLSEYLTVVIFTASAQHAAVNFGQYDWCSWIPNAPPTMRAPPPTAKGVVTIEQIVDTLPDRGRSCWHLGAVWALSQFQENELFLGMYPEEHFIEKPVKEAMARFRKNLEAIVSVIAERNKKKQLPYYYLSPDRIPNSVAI
Description: Inhibition of ALOX5 (unknown origin) at 0.000001 M relative to control. Particulars: dose 1 µM.

The test system of data set [4] is RAW264.7. Description: Inhibition of LPS-induced NO production in mouse RAW264.7 cells incubated for 24 hrs by Griess reagent based assay. Format: functional, cell-based. Particulars: RAW264.7, 24 h. A general note: Griess reagent forms a coloured azo dye with nitrite.
Data set [5] deals with Cladosporium cucumerinum. The experiment in a line: Antifungal activity against Cladosporium cucumerinum assessed as inhibition of microbial growth by bioautographic TLC method. It counts as functional.
In data set [6] the test system is Trypanosoma brucei brucei. The experiment in a line: […] activity against Trypanosoma brucei brucei GUTat 3.1 assessed as inhibition of parasite growth measured after 72 hrs by alamar blue assay. Format: functional, organism-based. In general terms: Resazurin is reduced to fluorescent resorufin, in cell work by metabolically active cells.
The test system of data set [7] is U-251. Description: Antiproliferative activity against human U-251MG cells assessed as cell growth inhibition. Format: functional. Particulars: read-out: ED50 (the source's name).
In data set [8] the test system is Candida albicans. Description: Antifungal activity against Candida albicans assessed as inhibition of fungal growth by MTT method. Format: functional. A general note: Tetrazolium dyes change colour on reduction, which living cells bring about.
For data set [9], the system named is Candida albicans. The experiment in a line: Antifungal activity against Candida albicans assessed as inhibition of fungal growth by MTT assay. It counts as functional.
The test system of data set [10] is Phytophthora infestans. Description: Antifungal activity against Phytophthora infestans assessed as inhibition of microbial growth by microtiter plate based analysis. It counts as functional, organism-based.
For data set [11], the system named is Zymoseptoria tritici. Description: Antifungal activity against Zymoseptoria tritici assessed as inhibition of microbial growth by microtiter plate based analysis. It counts as functional, organism-based.
Data set [12] deals with RPMI-7951. Description: Antiproliferative activity against human RPMI-7951 cells assessed as cell growth inhibition. Particulars: read-out: ED50 (the source's name). Format: functional.
Data set [13] deals with KB. Description: Antiproliferative activity against human KB cells assessed as cell growth inhibition. It counts as functional, cell-based.
Data set [14] deals with HL-60. The experiment in a line: Antiproliferative activity against human HL-60 cells assessed as cell growth inhibition. Format: functional, cell-based.
The test system of data set [15] is HT-29. Description: Antiproliferative activity against human HT-29 cells assessed as cell growth inhibition. Format: functional, cell-based. As to conditions: read-out: ED50 (the source's name).
Data set [16] addresses Cyclooxygenase (Homo sapiens, UniProt P35354+P23219). The experiment in a line: Inhibition of COX (unknown origin). Format: protein assay.
Data set [17] addresses DNA polymerase beta (Homo sapiens, UniProt P06746). The experiment in a line: Inhibition of DNA polymerase beta (unknown origin).
Data set [18] deals with Bacillus subtilis. Description: Antibacterial activity against Bacillus subtilis assessed as inhibition of bacterial growth. Format: functional.
Data set [19] in a line: Antioxidant activity assessed as DPPH radical scavenging activity. It counts as functional.
Data set [20] concerns the target Procathepsin L (Homo sapiens) (UniProt P07711). Description: Inhibition of Cathepsin L (unknown origin) at 0.00001 M relative to control. Particulars: dose 10 µM.
The target in data set [21] is Cathepsin B (Homo sapiens) (UniProt P07858). Description: Inhibition of Cathepsin B (unknown origin) at 0.00001 M relative to control. As to conditions: dose 10 µM.
Data set [22] in a line: Toxicity in brine shrimp assessed as lethality. As to conditions: artemia salina.
[23] abbreviates: GUTat 3.1, time 72 hrs, read-out: ED50 (the source's name).

≈ marks a conversion by molar mass, not a printed value.

The term IC50 denotes the concentration at which inhibition is half-maximal. As usually defined, the inhibition is the share of the control response that was lost under treatment. Broadly, the MIC is the lowest concentration found to suppress growth. In general, LC50 refers to the concentration lethal to half of the exposed cells or organisms.

Chain of Procathepsin L (Homo sapiens) (P07711 114-333 limits assumed): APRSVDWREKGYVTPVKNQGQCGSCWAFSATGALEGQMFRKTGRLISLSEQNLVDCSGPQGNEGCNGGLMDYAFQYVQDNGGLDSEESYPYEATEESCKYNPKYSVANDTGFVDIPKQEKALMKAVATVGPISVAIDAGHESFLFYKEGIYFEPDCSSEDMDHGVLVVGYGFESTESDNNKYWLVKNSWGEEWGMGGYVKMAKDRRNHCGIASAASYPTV

In the case of `C[C@@H]1CC[C@H]2C(=O)c3ccoc3C[C@@]12C`, the IC50 in data set [1] amounted to 12.5 µg/mL (≈ 61.2 µM); in [2], 1.7 µM. `CC1=CCc2c(O)cc(CCc3ccccc3)cc2OC1` showed an inhibition in data set [3] of 4%. The half-inhibitory concentration (IC50) in [2] came to 4.5 µM. Molecule `Cc1cc([C@@]2(C)CCCC2(C)C)ccc1O` showed an IC50 in data set [4] of 4.1 µM. As for `C=C1CC[C@@H]2[C@H]1[C@H]1OC(=O)C(=C)[C@@H]1CC[C@@]2(C)OC(C)=O`, in data set [5], the MIC is 10 µg/mL. Regarding `NCCCC(N)(C(=O)O)C(F)F` (configuration not stated) [EFLORNITHINE], the EC50 in data set [6] (setting [23]) stood at 2.27 µg/mL. For `COc1cc(OC)c2c3c1-c1c(O)cccc1[C@@H]1Oc4ccccc4[C@@H](C[C@@H]2O)[C@@H]31`, the EC50 in data set [7] turned out to be 0.8 µg/mL (≈ 1.99 µM). As for `C[C@H]1C(O)(O)C[C@@]2(C)[C@@H](CC[C@@H]3O[C@@]32C)[C@]1(C)CCc1ccoc1`, half-maximal inhibition in data set [2] (IC50) was put at 4.5 µM. With `C=C1CC[C@H]2C(=C)CC[C@@H]3[C@H](OC(=O)[C@@H]3C)[C@@H]12`, the MIC in [5] turned out to be 3 µg/mL. As for `COC(=O)c1c(C)cc(OC(=O)c2c(C)cc(O)c(C=O)c2O)c(C)c1O` [ATRANORIN], in data set [8], the MIC came out at 2 µg/mL (≈ 5.34 µM). Regarding `Clc1ccc(COC(Cn2ccnc2)c2ccc(Cl)cc2Cl)c(Cl)c1` (configuration not stated) [MICONAZOLE], the MID in data set [9] was 0.01 µg.

With `CC1=CCc2c(O)cc(CCc3ccccc3O)cc2OC1`, in data set [2], the half-maximal inhibitory concentration (IC50) turned out to be 4.5 µM. Regarding `CC1=CC[C@H]2C(C)(C)CCC[C@]2(C)[C@H]1C=O`, the IC50 was less than 0.03 µg/mL in data set [10] and 17.6 µg/mL in data set [11].

Regarding `O=C(/C=C/c1ccccc1)c1cc(O)cc2c1CC(c1ccccc1)O2` (configuration not stated) [PALLIDISETIN A], the EC50 is 1 µg/mL (≈ 2.92 µM) in data set [12] and 2 µg/mL (≈ 5.84 µM) in [7].

As to `C=C1C(=O)O[C@H]2C[C@@]3(C)CCC=C(C)[C@@H]3C[C@@H]12`, the IC50 in data set [13] came out at 3.3 µg/mL; in data set [14], 1.4 µg/mL (≈ 6.03 µM). In the case of `COc1cc(OC)c2c3c1C(=O)C[C@@H]1c4ccccc4O[C@@H](c4cccc(O)c4-2)[C@H]31`, the EC50 in [15] was 1 µg/mL (≈ 2.5 µM); in data set [12] it was 1 µg/mL (≈ 2.5 µM); in data set [7] it was 2 µg/mL (≈ 4.99 µM). As for `COc1cc(CCc2cccc(Oc3c(O)cccc3CCc3ccc(O)cc3)c2)cc(O)c1O`, the figures for the IC50 in data set [16] and in data set [17] were 45.2 µM and 14.4 µM, respectively. In the case of `CC1=CCc2c(cc(CCc3ccccc3)c(C(=O)O)c2O)OC1`, in data set [3], the inhibition came out at 4%. Also, the IC50 in data set [16] was found to be 39.7 µM. Take `CC1(C)CCC[C@]1(C)c1cc(CCc2cc(O)c(O)c([C@@]3(C)CCCC3(C)C)c2)cc(O)c1O`: the 50% inhibitory concentration (IC50) in data set [14] was 2.5 µg/mL (≈ 5.36 µM); in data set [19], 2 µg/mL (≈ 4.29 µM); in [4] it was 4.1 µM. Also, in data set [18], the MIC is 2 µg/mL (≈ 4.29 µM). Turning to `Oc1ccc2cc1Oc1ccc(cc1)CCc1cccc(c1)Oc1c(O)cccc1CC2`, the inhibition was 95% in data set [20] and 93% in data set [21]. Consider `CC(=O)N1CCN(c2ccc(OCC3COC(Cn4ccnc4)(c4ccc(Cl)cc4Cl)O3)cc2)CC1` (configuration not stated) [KETOCONAZOLE], for which the LC50 in [22] is listed as 14.9 ppm.

Take `CC1=CCc2c(O)cc(CCc3ccc(O)cc3)cc2OC1`: the inhibition in data set [3] worked out at 4%. Regarding `CC1=CCC[C@]2(C)CC[C@@H](C(C)(C)O)C[C@@H]12`, the EC50 in data set [6] (GUTat 3.1, 72 h, read-out: EC50) is 0.45 µM. `Cc1ccc(C(=O)Nc2ccc(S(=O)(=O)O)c3cc(S(=O)(=O)O)cc(S(=O)(=O)O)c23)cc1NC(=O)c1cccc(NC(=O)Nc2cccc(C(=O)Nc3cc(C(=O)Nc4ccc(S(=O)(=O)O)c5cc(S(=O)(=O)O)cc(S(=O)(=O)O)c45)ccc3C)c2)c1` [SURAMIN]: in [6] (setting [23]), the EC50 worked out at 1.5 µg/mL. Take `Oc1ccc2c(c1)CCc1ccc(cc1)Oc1cc(cc(-c3cc4cc(c3O)Oc3ccc(cc3)CCc3cc(O)ccc3-c3ccc(cc3O)CC4)c1O)CCc1ccc-2c(O)c1` [PUSILATIN B]: it took 13 µM to reach half-maximal inhibition in data set [17] (IC50).

With `COC1Cc2cccc(c2)Oc2c(O)cccc2CCc2ccc(cc2)Oc2cc1cc(O)c2O` (configuration not stated) [MARCHANTIN E], the IC50 stood at 7.6 µM in data set [13] and 58 µM in data set [16]. In addition, the MID in data set [9] was determined as 2.5 µg/mL. For the same molecule, in [3], the inhibition was 4%. Consider `Oc1ccc(CCc2c(Cl)cc(Cl)c(O)c2Cl)cc1Cl`, for which the LC50 in data set [22] was 0.42 ppm.

Values taken from ChEMBL document CHEMBL5260825, “Chemical Constituents of Bryophytes: Structures and Biological Activity” (J Nat Prod, 2018).
